Source: DBAASP
Converted amounts (≈) assume the structure as drawn. Values belong to the compound of their own block, whether it stands above or below them.

Key:
Test in all cases: ≥ marks a high value that may be exact or a test limit, other limits are often not marked, values filed in µg/mL are converted to µM
[1] = system: Staphylococcus epidermidis KCTC 1917
[2] = system: Staphylococcus aureus ATCC 25923
[3] = system: Candida albicans KCTC 7270
[4] = system: Pseudomonas aeruginosa KCTC 1637
[5] = system: Saccharomyces cerevisiae KCTC 7296
[6] = system: Salmonella typhimurium KCTC 1926
[7] = system: Trichosporon beigelii KCTC 7707
[8] = system: Staphylococcus aureus KCTC 1621
[9] = system: Proteus vulgaris KCTC 2433
[10] = system: Escherichia coli ATCC 25922
[11] = system: Pseudomonas aeruginosa ATCC 15692
[12] = system: Escherichia coli KCTC 1682
[13] = system: Bacillus subtilis KCTC 1918
[14] = system: Staphylococcus aureus ATCC 12600
[15] = system: Candida albicans ATCC 10231
[16] = system: Escherichia coli ATCC 11775
[17] = system: Botrytis cinerea
[18] = system: Escherichia coli
[19] = system: Pasteurella multocida
[20] = system: Listeria innocua
[21] = system: Enterobacter cloacae
[22] = system: Staphylococcus epidermidis
[23] = system: Pseudomonas aeruginosa
[24] = system: Enterococcus faecalis
[25] = system: Bacillus cereus
[26] = system: Leuconostoc lactis
[27] = system: Staphylococcus aureus ATCC 29213
[28] = system: Micrococcus luteus
[29] = system: Streptococcus uberis
[30] = system: Micrococcus luteus ATCC 9341
[31] = system: Xanthomonas vesicatoria DSM 50861
[32] = system: Clavibacter michiganensis subsp. michiganensis DSM 46294
[33] = system: Pseudomonas corrugata DSM 7228
[34] = system: Pseudomonas syringae pv. syringae DSM 10604
[35] = system: Pectobacterium carotovorum subsp. carotovorum DSM 30168
[36] = system: Pseudomonas syringae pv. tomato DC3000
[37] = system: Escherichia coli BW25113

SMILES: CC[C@H](C)[C@H](NC(=O)[C@H](CCCCN)NC(=O)[C@H](CO)NC(=O)[C@H](Cc1ccccc1)NC(=O)[C@H](CC(C)C)NC(=O)[C@H](CCCCN)NC(=O)[C@@H]1CCCN1C(=O)[C@H](CC(C)C)NC(=O)[C@H](CCCN=C(N)N)NC(=O)[C@H](CCCCN)NC(=O)[C@H](Cc1ccccc1)NC(=O)[C@@H](NC(=O)[C@H](CCCCN)NC(=O)[C@H](CCCCN)NC(=O)[C@H](C)N)C(C)C)C(=O)N[C@@H](Cc1c[nH]c2ccccc12)C(=O)N[C@@H](CC(N)=O)C(=O)N[C@@H](Cc1c[nH]c2ccccc12)C(=O)N[C@@H](CCCCN)C(N)=O [AKKVFKRLPKLFSKIWNWK]
MIC [1]: 0.39 µM (≈ 0.943 µg/mL) | MIC [2]: 4 µM (≈ 9.67 µg/mL) | MIC [3]: 3.13 µM (≈ 7.57 µg/mL) | MIC [4]: 1.56 µM (≈ 3.77 µg/mL) | MIC [5]: 1.56 µM (≈ 3.77 µg/mL) | MIC [6]: 0.09 µM (≈ 0.218 µg/mL) | MIC [7]: 1.56 µM (≈ 3.77 µg/mL) | MIC [8]: 0.39 µM (≈ 0.943 µg/mL) | MIC [9]: 0.09 µM (≈ 0.218 µg/mL) | MIC [10]: 2 µM (≈ 4.83 µg/mL) | MIC [11]: 2 µM (≈ 4.83 µg/mL) | MIC [12]: 0.19 µM (≈ 0.459 µg/mL) | MIC [13]: 0.39 µM (≈ 0.943 µg/mL)

SMILES: CC(C)C[C@H](NC(=O)[C@H](C)NC(=O)[C@H](CO)NC(=O)[C@@H](NC(=O)[C@@H](NC(=O)[C@H](CO)NC(=O)[C@H](CCCCN)NC(=O)[C@@H](NC(=O)[C@H](CC(C)C)NC(=O)CNC(=O)[C@H](CC(C)C)NC(=O)[C@H](CC(C)C)NC(=O)[C@H](CC(=O)O)NC(=O)[C@@H](N)Cc1ccccc1)C(C)C)C(C)C)C(C)C)C(N)=O [FDLLGLVKSVVSAL]
MIC [14]: 25 µM (≈ 36.5 µg/mL) | MIC [15]: 100 µM (≈ 146 µg/mL) | MIC [16]: ≥ 200 µM | MIC [17]: 5 µM (≈ 7.3 µg/mL)

SMILES: CSCC[C@H](NC(=O)[C@H](C)NC(=O)[C@H](C)NC(=O)[C@@H]1CCCN1C(=O)[C@H](CO)NC(=O)[C@@H](N)CC(C)C)C(=O)N[C@@H](C)C(=O)N[C@@H](CO)C(=O)N[C@@H](CC(C)C)C(=O)N[C@@H](C)C(N)=O [LSPAAMASLA]
MIC [14]: ≥ 200 µM | MIC [15]: > 200 µM | MIC [16]: ≥ 200 µM | MIC [17]: ≥ 200 µM

SMILES: CC(C)C[C@H](NC(=O)[C@H](Cc1ccc(O)cc1)NC(=O)[C@@H]1CCCN1)C(=O)N1CCC[C@H]1C(=O)N[C@@H](CCCN=C(N)N)C(=O)N1CCC[C@H]1C(=O)NCC(=O)N[C@@H](CCCN=C(N)N)C(=O)N[C@@H](CCCN=C(N)N)C(=O)N1CCC[C@H]1C(=O)N[C@@H](CCCN=C(N)N)C(=O)N[C@@H](Cc1ccccc1)C(=O)N1CCC[C@H]1C(=O)N1CCC[C@H]1C(=O)N1CCC[C@H]1C(=O)N[C@@H](Cc1ccccc1)C(=O)N1CCC[C@H]1C(=O)O [PYLPRPGRRPRFPPPFP]
MIC [37]: ≥ 64 µM

SMILES: CC[C@H](C)[C@H](NC(=O)[C@@H]1CCCN1C(=O)[C@@H]1CCCN1C(=O)[C@H](CCCN=C(N)N)NC(=O)[C@H](Cc1ccccc1)NC(=O)[C@@H](N)CCCN=C(N)N)C(=O)N[C@@H](CCCN=C(N)N)C(=O)N[C@@H](CCCN=C(N)N)C(=O)N1CCC[C@H]1C(=O)N1CCC[C@H]1C(=O)N[C@H](C(=O)N[C@@H](CCCN=C(N)N)C(=O)N1CCC[C@H]1C(=O)N1CCC[C@H]1C(=O)N[C@@H](Cc1ccccc1)C(=O)N[C@@H](Cc1c[nH]c2ccccc12)C(=O)N1CCC[C@H]1C(=O)O)[C@@H](C)CC [RFRPPIRRPPIRPPFWP]
MIC [37]: 16 µM (≈ 35 µg/mL)

SMILES: CC[C@H](C)[C@H](NC(=O)[C@@H]1CCCN1C(=O)[C@@H]1CCCN1C(=O)[C@H](CCCN=C(N)N)NC(=O)[C@H](Cc1c[nH]c2ccccc12)NC(=O)[C@@H](N)CCCN=C(N)N)C(=O)N[C@@H](CCCN=C(N)N)C(=O)N[C@@H](CCCN=C(N)N)C(=O)N1CCC[C@H]1C(=O)N1CCC[C@H]1C(=O)N[C@H](C(=O)N[C@@H](CCCN=C(N)N)C(=O)N1CCC[C@H]1C(=O)N1CCC[C@H]1C(=O)N[C@@H](Cc1c[nH]c2ccccc12)C(=O)N[C@@H](Cc1ccc(O)cc1)C(=O)N1CCC[C@H]1C(=O)O)[C@@H](C)CC [RWRPPIRRPPIRPPWYP]
MIC [37]: 16 µM (≈ 35.9 µg/mL)

Next, values leading:

MIC [18]: > 38.1 µM | MIC [2]: 4.57 µM (≈ 12 µg/mL) | MIC [19]: 19.1 µM (≈ 50 µg/mL) | MIC [20]: 4.57 µM (≈ 12 µg/mL) | MIC [21]: ≥ 38.1 µM | MIC [22]: 9.53 µM (≈ 25 µg/mL) | MIC [23]: > 38.1 µM | MIC [24]: ≥ 38.1 µM | MIC [25]: 19.1 µM (≈ 50 µg/mL) | MIC [26]: 9.53 µM (≈ 25 µg/mL) | MIC [27]: 4.57 µM (≈ 12 µg/mL) | MIC [28]: 4.57 µM (≈ 12 µg/mL) | MIC [29]: 9.53 µM (≈ 25 µg/mL)
SMILES: CC[C@H](C)[C@H](NC(=O)[C@@H](NC(=O)[C@@H]1CCCN1C(=O)[C@@H](NC(=O)[C@@H](NC(=O)[C@H](Cc1cnc[nH]1)NC(=O)[C@@H]1CCCN1C(=O)[C@H](CC(C)C)NC(=O)[C@H](CC(C)C)NC(=O)[C@H](Cc1cnc[nH]1)NC(=O)[C@H](CCCCN)NC(=O)[C@H](C)NC(=O)[C@@H](NC(=O)[C@H](CO)NC(=O)CNC(=O)[C@H](CC(C)C)NC(=O)[C@@H](NC(=O)[C@H](CO)NC(=O)[C@H](Cc1ccccc1)NC(=O)[C@H](CC(C)C)NC(=O)CN)C(C)C)C(C)C)C(C)C)C(C)C)C(C)C)C(=O)N[C@@H](C)C(=O)N[C@@H](CCC(=O)O)C(=O)N[C@@H](CCCCN)C(=O)N[C@@H](CC(C)C)C(N)=O [GLFSVLGSVAKHLLPHVVPVIAEKL]

MIC [30]: 0.4 µM (≈ 0.746 µg/mL)
SMILES: CC[C@H](C)[C@H](N)C(=O)N[C@@H](C)C(=O)N1CCC[C@H]1C(=O)N[C@@H](Cc1c[nH]c2ccccc12)C(=O)N[C@@H](CCCCN)C(=O)N[C@@H](Cc1c[nH]c2ccccc12)C(=O)N1CCC[C@H]1C(=O)N[C@@H](Cc1c[nH]c2ccccc12)C(=O)N[C@@H](Cc1c[nH]c2ccccc12)C(=O)N1CCC[C@H]1C(=O)N[C@@H](Cc1c[nH]c2ccccc12)C(=O)N[C@@H](CCCN=C(N)N)C(=O)N[C@@H](CCCN=C(N)N)C(N)=O [IAPWKWPWWPWRR]

MIC [31]: 0.0404 µM (≈ 0.0999 µg/mL) | MIC [32]: 0.0404 µM (≈ 0.0999 µg/mL) | MIC [33]: 0.101 µM (≈ 0.25 µg/mL) | MIC [34]: 4.04 µM (≈ 10 µg/mL) | MIC [35]: 4.04 µM (≈ 10 µg/mL) | MIC [36]: 4.04 µM (≈ 10 µg/mL)
SMILES: CC[C@H](C)[C@H](NC(=O)[C@H](C)NC(=O)[C@H](CCCCN)NC(=O)[C@H](CCCN=C(N)N)NC(=O)[C@H](CCCN=C(N)N)NC(=O)[C@@H](N)CCCCN)C(=O)N[C@@H](CCCCN)C(=O)N[C@H](C(=O)N[C@@H](CC(C)C)C(=O)N[C@@H](CCCCN)C(=O)N[C@@H](CC(C)C)C(=O)N[C@H](C(=O)N[C@@H](C)C(=O)N[C@@H](CCCCN)C(=O)N[C@@H](CC(C)C)C(=O)N[C@H](C(=O)N[C@@H](CCCN=C(N)N)C(=O)N[C@@H](CCCCN)C(=O)N[C@@H](CCCCN)C(=O)N[C@@H](CCCN=C(N)N)C(N)=O)[C@@H](C)CC)[C@@H](C)CC)[C@@H](C)CC [KRRKAIKILKLIAKLIRKKR]
